ChEMBL document CHEMBL1201862, “PubChem BioAssay data set” (2004)
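Exposure lasted 48 hours, with cells grown in 96-well plates and compounds tested at five concentrations. GI50: concentration for 50% inhibition of growth.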 Calls of active or inactive are those of the source. No stated cut-off is given here; in the data, active = GI50 up to about 1.1 µM and inactive = higher.

Legend:
Test in all cases: NCI tumour cell line growth inhibition, 48 h
NCI-H522 = system: NCI-H522
SNB-19 = system: SNB-19
K562 = system: K562
HT-29 = system: HT-29
RPMI-8226 = system: RPMI-8226
OVCAR-3 = system: OVCAR-3
SK-MEL-28 = system: SK-MEL-28
KM12 = system: KM12
SF-268 = system: SF-268
NCI-H460 = system: NCI-H460
786-0 = system: 786-0
HCT-15 = system: HCT-15
SK-MEL-2 = system: SK-MEL-2
SF-295 = system: SF-295
HOP-92 = system: HOP-92
COLO 205 = system: COLO 205
U-251 = system: U-251
Hs-578T = system: Hs-578T
MDA-MB-231 = system: MDA-MB-231
SR = system: SR

| SMILES | GI50 (NCI-H522) | GI50 (SNB-19) | GI50 (K562) | GI50 (HT-29) | GI50 (RPMI-8226) | GI50 (OVCAR-3) | GI50 (SK-MEL-28) | GI50 (KM12) | GI50 (SF-268) | GI50 (NCI-H460) | GI50 (786-0) | GI50 (HCT-15) [µM] | GI50 (SK-MEL-2) | GI50 (SF-295) | GI50 (HOP-92) | GI50 (COLO 205) | GI50 (U-251) | GI50 (Hs-578T) | GI50 (MDA-MB-231) | GI50 (SR) |
| --- | --- | --- | --- | --- | --- | --- | --- | --- | --- | --- | --- | --- | --- | --- | --- | --- | --- | --- | --- | --- |
| CC1(CC(=O)O)OC2CCCCCC2O1.NCc1ccccc1 (stereo not given) | > 100 µM (inactive) | > 100 µM (inactive) | 57.8 µM (inactive) | 64.1 µM (inactive) | 31.9 µM (inactive) | > 100 µM (inactive) | > 100 µM (inactive) | 64.6 µM (inactive) | > 100 µM (inactive) | > 100 µM (inactive) | > 100 µM (inactive) | > 100 | > 100 µM (inactive) | > 100 µM (inactive) | 51.4 µM (inactive) | > 100 µM (inactive) | 91.4 µM (inactive) | > 100 µM (inactive) | > 100 µM (inactive) | > 100 µM (inactive) |
| c1ccc2cc(CNCCOCCOCCNCc3ccc4ccccc4c3)ccc2c1 | 1.83 µM (inactive) | 2.31 µM (inactive) | 0.446 µM (active) | 1.31 µM (inactive) | 1.19 µM (inactive) | 1.67 µM (inactive) | 1.97 µM (inactive) | 1.6 µM (inactive) | 1.97 µM (inactive) | 1.64 µM (inactive) | 1.57 µM (inactive) | 1.94 | 1.91 µM (inactive) | 1.64 µM (inactive) | 1.52 µM (inactive) | 1.48 µM (inactive) | 1.97 µM (inactive) | 1.57 µM (inactive) | 1.57 µM (inactive) | 1.26 µM (inactive) |
| Cn1cc(-c2n[nH]c(-c3ccc(Cl)cc3)nc2=O)c2ccccc21 | 0.959 µM (active) | 3.03 µM (inactive) | 0.544 µM (active) | 2.19 µM (inactive) | 3.23 µM (inactive) | 0.979 µM (active) | > 71.1 µM (inactive) | 0.776 µM (active) | 7.59 µM (inactive) | 2.33 µM (inactive) | 3.38 µM (inactive) | 1.1 | 3.4 µM (inactive) | 1.43 µM (inactive) | 12.3 µM (inactive) | 2.07 µM (inactive) | 2.31 µM (inactive) | 2.76 µM (inactive) | 15.5 µM (inactive) | 0.774 µM (active) |
| CCOC(=O)c1c(SCCN2CCOCC2)n(-c2ccccc2)c(=S)n(-c2ccccc2)c1=O | 43.7 µM (inactive) | > 100 µM (inactive) | 19 µM (inactive) | 19.5 µM (inactive) | 33.7 µM (inactive) | 49.2 µM (inactive) | 24 µM (inactive) | > 100 µM (inactive) | 37.4 µM (inactive) | > 100 µM (inactive) | 21.2 µM (inactive) | 20 | > 100 µM (inactive) | 25.6 µM (inactive) | 51.6 µM (inactive) | > 100 µM (inactive) | > 100 µM (inactive) | 37.8 µM (inactive) | 44 µM (inactive) | 18.4 µM (inactive) |
| CC(C)(C)c1cc(OCc2nnc3sc(-c4ccc(Cl)cc4)nn23)c(Cl)cc1OCc1nnc2sc(-c3ccc(Cl)cc3)nn12 | 0.564 µM (active) | 3.59 µM (inactive) | 1.95 µM (inactive) | 30.8 µM (inactive) | 3.56 µM (inactive) | 2.47 µM (inactive) | 3.89 µM (inactive) | 2.47 µM (inactive) | 6.97 µM (inactive) | 3.06 µM (inactive) | 3.97 µM (inactive) | 3.31 | 7.91 µM (inactive) | 3.3 µM (inactive) | 0.895 µM (active) | 7.46 µM (inactive) | 5.79 µM (inactive) | 5.7 µM (inactive) | 8.15 µM (inactive) | 0.315 µM (active) |
| CC1CC2OC(=O)C(C)C2CC2(C)C(OC3OC(CO)C(O)C(O)C3O)OCCC12 (stereo not given) | > 100 µM (inactive) | > 100 µM (inactive) | > 100 µM (inactive) | > 100 µM (inactive) | > 100 µM (inactive) | > 100 µM (inactive) | > 100 µM (inactive) | > 100 µM (inactive) | > 100 µM (inactive) | > 100 µM (inactive) | > 100 µM (inactive) | > 100 | > 100 µM (inactive) | > 100 µM (inactive) | > 100 µM (inactive) | > 100 µM (inactive) | > 100 µM (inactive) | > 100 µM (inactive) | > 100 µM (inactive) | > 100 µM (inactive) |
| N#Cc1ccc(-n2c3ccccc3c3ccc4c(c32)C(=O)C=CC4=O)cc1 | 0.11 µM (active) | 10.1 µM (inactive) | 1.29 µM (inactive) | 1.66 µM (inactive) | 3.72 µM (inactive) | 3.27 µM (inactive) | 2.88 µM (inactive) | 10.2 µM (inactive) | 2.62 µM (inactive) | 21.6 µM (inactive) | 1.56 µM (inactive) | 4.49 | 8.87 µM (inactive) | 14 µM (inactive) | 1.52 µM (inactive) | 2.79 µM (inactive) | 4.56 µM (inactive) | 4.16 µM (inactive) | 2.51 µM (inactive) | 1.46 µM (inactive) |
| CCOC1OC(CO[Si](C)(C)C(C)(C)C)C(O)CC1n1ccc(=O)[nH]c1=O (stereo not given) | 20.6 µM (inactive) | > 100 µM (inactive) | 31.9 µM (inactive) | 47.5 µM (inactive) | 49.8 µM (inactive) | 43.8 µM (inactive) | 61.4 µM (inactive) | 88.7 µM (inactive) | 30.8 µM (inactive) | 81.3 µM (inactive) | 78.3 µM (inactive) | 35.6 | > 100 µM (inactive) | > 100 µM (inactive) | 85.7 µM (inactive) | 80.5 µM (inactive) | > 100 µM (inactive) | > 100 µM (inactive) | 67 µM (inactive) | 42.6 µM (inactive) |
| CCOc1ccnc2c(OC)c(C)c3nc4ccccc4nc3c12 | > 100 µM (inactive) | > 100 µM (inactive) | 98.6 µM (inactive) | 72.8 µM (inactive) | > 100 µM (inactive) | > 100 µM (inactive) | > 100 µM (inactive) | 86.5 µM (inactive) | > 100 µM (inactive) | > 100 µM (inactive) | > 100 µM (inactive) | 12.8 | > 100 µM (inactive) | > 100 µM (inactive) | 93.8 µM (inactive) | > 100 µM (inactive) | > 100 µM (inactive) | > 100 µM (inactive) | > 100 µM (inactive) | 18.6 µM (inactive) |
| c1ccc(COCC23CCN(Cc4ccccc4)C(CC(OCc4ccccc4)C2)S3)cc1 (stereo not given) | 29.7 µM (inactive) | 90.8 µM (inactive) | 31 µM (inactive) | 25.8 µM (inactive) | 35.2 µM (inactive) | 97.5 µM (inactive) | > 100 µM (inactive) | 44.1 µM (inactive) | 73.3 µM (inactive) | 46.7 µM (inactive) | > 100 µM (inactive) | 28.6 | 37.2 µM (inactive) | 87.1 µM (inactive) | 20.3 µM (inactive) | 35.2 µM (inactive) | 44.8 µM (inactive) | 86.3 µM (inactive) | 66.4 µM (inactive) | 26.6 µM (inactive) |
| CCC1=CC(OCc2ccccc2)C(CCN(Cc2ccccc2)C(=O)OCc2ccccc2)C1 (stereo not given) | 11.7 µM (inactive) | 14.8 µM (inactive) | 11 µM (inactive) | 17.9 µM (inactive) | 8.59 µM (inactive) | 14.2 µM (inactive) | 20.7 µM (inactive) | 15.6 µM (inactive) | 15.6 µM (inactive) | 15.3 µM (inactive) | 19.3 µM (inactive) | 13.6 | 20.2 µM (inactive) | 14.8 µM (inactive) | 13.5 µM (inactive) | 20.8 µM (inactive) | 19.8 µM (inactive) | 11.5 µM (inactive) | 18.5 µM (inactive) | 17.3 µM (inactive) |
